Results published in patent US20100041597A1, “PEPTIDES TARGETED TO PROTEIN KINASE C ISOFORMS AND USES THEREOF” (priority 2005, published 2010).

Tests used:
[1] = system: IMR-32 neuroblastoma cells; assay: In vitro toxicity test (fluorimetric DNA assay, Hoechst); format: cell-based, human
Description: (§1) In vitro cytotoxicity testing of the peptides PRE 3, PRE 4 and PRE 5 (see Table 3) was conducted following the general protocol outlined below (modified from “Fluorimetric DNA assay for cell growth estimation” Rao J, Otto W., Analytical Biochem. 207:186-192, 1992).
(§2) The assay was performed in 96 well plates, with 3,000 IMR-32 neuroblastoma cells seeded per well and 8 replicas were performed per treatment. The cells were pre-treated with either plain medium and a pinocytic endocytosis reagent (Molecular Probes) or medium containing the PRE under evaluation and the pinocytic endocytosis reagent. The cells were allowed to grow under conventional conditions for 3 days. The DNA content of each well was assessed at 24, 48 and 72 hours using Hoechst reagent according to standard procedures. The fluorescence intensity per well was measured using the plate reader “CytoFluor 2350” from Millipore. Excitation was 360 nm and emission was 460 nm. The number of cells is directly correlated to the DNA content.
(§3) The results are shown in Tables 11-13 as the average relative fluorescence intensity measured for the 8 replica wells, as well as the percentage of survival as compared with matching untreated controls.

[2] = as above; format: cell-based, human; conditions: human, IMR-32 neuroblastoma cells, read-out: % survival
Description: as §1, §2, §3

[3] = biological target: PKC-α (Homo sapiens, UniProt P17252); assay: In vitro competition with anti-PKC-α antibody, Protocol B (peptide added to cell extract before electrophoresis), IMR-32 cells; format: binding; set-up: subcellular localisation of endogenous PKC-α in IMR-32 cells; endogenous in cells; host or cells: IMR-32; conditions: PKC-α; for Band Intensity: control band intensity 302.5, Table 9
Description: (§4) Peptides PRE 3 and PRE 4 (see Table 3) were tested for their ability to interfere with the binding of isoform-specific polyclonal antibodies (Santa Cruz Biotechnology, Inc.) to PKC-α, PKC-βI or PKC-βII using the general protocol described in Example 3.

[4] = biological target: PKC-βI (Homo sapiens, UniProt P05771); assay: In vitro competition with anti-PKC-βI antibody, Protocol B, IMR-32 cells; format: binding; set-up: PRE 3 and PRE 4 in IMR-32 Neuroblastoma Cells: Protocol B; endogenous in cells; host or cells: IMR-32; conditions: for Band Intensity: control band intensity 170.5, Table 9
PKC-βI, sequence (P05771 whole entry): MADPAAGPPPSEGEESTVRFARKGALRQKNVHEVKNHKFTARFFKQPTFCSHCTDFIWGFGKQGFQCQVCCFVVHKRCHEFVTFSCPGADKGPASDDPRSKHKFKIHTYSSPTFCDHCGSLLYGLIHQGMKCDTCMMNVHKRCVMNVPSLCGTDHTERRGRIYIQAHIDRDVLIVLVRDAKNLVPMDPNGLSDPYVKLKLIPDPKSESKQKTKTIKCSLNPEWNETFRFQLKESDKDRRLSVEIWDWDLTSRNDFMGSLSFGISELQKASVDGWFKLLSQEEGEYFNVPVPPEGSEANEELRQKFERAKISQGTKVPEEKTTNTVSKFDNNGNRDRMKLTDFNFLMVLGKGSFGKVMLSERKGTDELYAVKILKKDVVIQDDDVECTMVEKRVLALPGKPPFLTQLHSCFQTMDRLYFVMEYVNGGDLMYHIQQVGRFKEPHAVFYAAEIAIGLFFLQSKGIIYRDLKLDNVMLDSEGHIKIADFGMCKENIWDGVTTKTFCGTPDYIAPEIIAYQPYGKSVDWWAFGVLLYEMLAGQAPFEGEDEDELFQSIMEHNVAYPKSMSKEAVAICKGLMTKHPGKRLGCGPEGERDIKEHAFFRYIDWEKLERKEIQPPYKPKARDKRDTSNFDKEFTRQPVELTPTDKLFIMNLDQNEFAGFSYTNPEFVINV
Description: (§5) The ability of the peptides PRE 2 and PRE 3 (see Table 3) to interfere with the binding of a PKC-α-specific polyclonal antibody (Santa Cruz Biotechnology, Inc.) to PKC-α was determined using a modified version of the protocol outlined above in which the test peptide was added directly to the cell extract prior to electrophoresis at a concentration of either 5× or 15× the concentration of the protein applied to each well of the gel for the Western blots (20 μg).
as §4

[5] = system: PKC-ε; assay: In vitro competition with anti-PKC-ε antibody, Protocol B, IMR-32 cells; format: binding, human
Description: as §5
Peptides PRE 2, PRE 3 and PRE 4 (see Table 3) were tested for their ability to interfere with the binding of isoform-specific polyclonal antibodies (Santa Cruz Biotechnology, Inc.) to PKC-ε using the general protocol described in Example 3. Two bands, representing alternate splicing variants of PKC-ε, were identified on the Western blot using this anti-PKC-ε antibody.

[6] = system: PKC-β; assay: In vitro competition with anti-PKC-β antibody, Protocol A, IMR-32 cells; format: binding, human; conditions: for Band Intensity / Inhibition (%) / Relative Intensity (%): PKC-β, IMR-32, Table 6
Description: Cell lysates from either IMR-32 (human neuroblastoma) cells or C6Cx43 cells (rat glioma transfected cells overexpressing connexin 43) were obtained using standard protocols and the proteins of the lysate were separated by SDS PAGE electrophoresis and electrotransferred onto a nitrocellulose membrane. The membrane was incubated for 30 minutes in blocking buffer (TBST) containing the test peptide at either 5× or 20× the concentrations of the primary antibody. A primary polyclonal antibody specific for PKC-α (Santa Cruz Biotechnology, Inc., CA) was then added (15 μg/ml) and the membrane incubated for a further 45 minutes. Finally, the primary antibody was detected with a secondary antibody conjugated to alkaline phosphatase using standard procedures. The intensity of the band corresponding to PKC-α was assessed by scanning and densitometry using the Gel-Pro software (Media Cybernetics) to obtain relative band intensities (average of 3 replicas). Control assays were conducted as described above except that blocking buffer without peptide was used.
Peptides PRE 1, PRE 2 and PRE 3 (see Table 3) were tested for their ability to interfere with the binding of a PKC-β-specific polyclonal antibody (Santa Cruz Biotechnology, Inc.) to PKC-β using the general protocol described in Example 1. […] It is worth noting in this regard that PKC-α and PKC-β belong to the same sub-group of PKCs (cPKCs).

[7] = 2.5 mg/ml, 24 h, with pinocytic endocytosis reagent
[8] = 2.5 mg/ml, 48 h, with pinocytic endocytosis reagent
[9] = 2.5 mg/ml, 72 h, with pinocytic endocytosis reagent
[10] = 10 mg/ml, 24 h, with pinocytic endocytosis reagent
[11] = 10 mg/ml, 48 h, with pinocytic endocytosis reagent
[12] = 10 mg/ml, 72 h, with pinocytic endocytosis reagent

## Ac-AKGIQEVKGGKDAQNLIGISI-NH2 [PRE 5]
[1]; 62.5 μg/ml, 24 h, 3000 cells/100 μl/well, Table 13
  AFI (Average fluorescence intensity): 717
[1]; 62.5 μg/ml, 48 h, Table 13
  AFI (Average fluorescence intensity): 1084
[1]; 62.5 μg/ml, 72 h, Table 13
  AFI (Average fluorescence intensity): 1290
[1]; 125 μg/ml, 24 h, Table 13
  AFI (Average fluorescence intensity): 593
[1]; 125 μg/ml, 48 h, Table 13
  AFI (Average fluorescence intensity): 991
[1]; 125 μg/ml, 72 h, Table 13
  AFI (Average fluorescence intensity): 1200
[1]; 250 μg/ml, 24 h, Table 13
  AFI (Average fluorescence intensity): 557
[1]; 250 μg/ml, 48 h, Table 13
  AFI (Average fluorescence intensity): 899
[1]; 250 μg/ml, 72 h, Table 13
  AFI (Average fluorescence intensity): 1150
[1]; 500 μg/ml, 24 h, Table 13
  AFI (Average fluorescence intensity): 492
[1]; 500 μg/ml, 48 h, Table 13
  AFI (Average fluorescence intensity): 891
[1]; 500 μg/ml, 72 h, Table 13
  AFI (Average fluorescence intensity): 1082
[2]; 62.5 μg/ml, 24 h, Table 13
  viability at 24 h, 62.5 µg/mL: 113%
[2]; 62.5 μg/ml, 48 h, Table 13
  viability at 48 h, 62.5 µg/mL: 117%
[2]; 62.5 μg/ml, 72 h, Table 13
  viability at 72 h, 62.5 µg/mL: 100%
[2]; 125 μg/ml, 24 h, Table 13
  viability at 24 h, 125 µg/mL: 94%
[2]; 125 μg/ml, 48 h, Table 13
  viability at 48 h, 125 µg/mL: 107%
[2]; 125 μg/ml, 72 h, Table 13
  viability at 72 h, 125 µg/mL: 93%
[2]; 250 μg/ml, 24 h, Table 13
  viability at 24 h, 250 µg/mL: 88%
[2]; 250 μg/ml, 48 h, Table 13
  viability at 48 h, 250 µg/mL: 97%
[2]; 250 μg/ml, 72 h, Table 13
  viability at 72 h, 250 µg/mL: 89%
[2]; 500 μg/ml, 24 h, Table 13
  viability at 24 h, 500 µg/mL: 78%
[2]; 500 μg/ml, 48 h, Table 13
  viability at 48 h, 500 µg/mL: 96%
[2]; 500 μg/ml, 72 h, Table 13
  viability at 72 h, 500 µg/mL: 84%

## Ac-KDAQNLIGISI-NH2 [PRE 4, Ac-KDAQNLIGISI-NH2]
[3]; 100 μg, Table 9
  inhibition at 0.1 mg: 89.4%
[3]; 100 μg, Table 9, read-out: Relative Intensity (%)
  remaining activity at 0.1 mg: 10.6%
[3]; 100 μg
  Band Intensity: 32.2
[3]; 200 μg, Table 9
  inhibition at 0.2 mg: 99.5%
[3]; 200 μg, Table 9, read-out: Relative Intensity (%)
  remaining activity at 0.2 mg: 0.5%
[3]; 200 μg
  Band Intensity: 1.5
[3]; 300 μg, Table 9
  inhibition at 0.3 mg: 100%
[3]; 300 μg, Table 9, read-out: Relative Intensity (%)
  remaining activity at 0.3 mg: 0%
[3]; 300 μg
  Band Intensity: 0.0
[4]
  effect on antibody binding to PKC-βI: some cross-reactivity
[4]; 100 μg, PKC-βI, Table 9
  inhibition at 0.1 mg: 34%
[4]; 100 μg, PKC-βI, Table 9, read-out: Relative Intensity (%)
  remaining activity at 0.1 mg: 66%
[4]; 100 μg, PKC-βI
  Band Intensity: 112.5
[4]; 200 μg, PKC-βI, Table 9
  inhibition at 0.2 mg: 100%
[4]; 200 μg, PKC-βI, Table 9, read-out: Relative Intensity (%)
  remaining activity at 0.2 mg: 0%
[4]; 200 μg, PKC-βI
  Band Intensity: 0.0
[4]; 300 μg, PKC-βI, Table 9
  inhibition at 0.3 mg: 100%
[4]; 300 μg, PKC-βI, Table 9, read-out: Relative Intensity (%)
  remaining activity at 0.3 mg: 0%
[4]; 300 μg, PKC-βI
  Band Intensity: 0.0
[1]; [7]
  AFI (Average fluorescence intensity): 179
[1]; [8]
  AFI (Average fluorescence intensity): 240
[1]; [9]
  AFI (Average fluorescence intensity): 777
[1]; [10]
  AFI (Average fluorescence intensity): 173
[1]; [11]
  AFI (Average fluorescence intensity): 247
[1]; [12]
  AFI (Average fluorescence intensity): 809
[2]; [7]
  viability at 24 h, 2500 µg/mL: 106%
[2]; [8]
  viability at 48 h, 2500 µg/mL: 99%
[2]; [9]
  viability at 72 h, 2500 µg/mL: 110%
[2]; [10]
  viability at 24 h, 10000 µg/mL: 103%
[2]; [11]
  viability at 48 h, 10000 µg/mL: 101%
[2]; [12]
  viability at 72 h, 10000 µg/mL: 115%
[5]
  effect on antibody binding to PKC-ε: some cross-reactivity with PKC-ε
[5]; 20 μg, PKC-ε Band 1, Table 10
  Band Intensity: 184.38
  Inhibition (%): 42.9%
  Relative Intensity (%): 57.1%
[5]; 20 μg, PKC-ε Band 2, Table 10
  Band Intensity: 152.66
  Inhibition (%): 46.6%
  Relative Intensity (%): 53.33%
[5]; 50 μg, PKC-ε Band 1, Table 10
  Band Intensity: 0.0
  Inhibition (%): 100.0%
  Relative Intensity (%): 0.0%
[5]; 50 μg, PKC-ε Band 2, Table 10
  Band Intensity: 0.0
  Inhibition (%): 100.0%
  Relative Intensity (%): 0.0%
[5]; 100 μg, PKC-ε Band 1, Table 10
  Band Intensity: 0.0
  Inhibition (%): 100.0%
  Relative Intensity (%): 0.0%
[5]; 100 μg, PKC-ε Band 2, Table 10
  Band Intensity: 0.0
  Inhibition (%): 100.0%
  Relative Intensity (%): 0.0%

## RRKKGGKDFVVKR [PRE 1]
[6]
  effect on antibody binding to PKC-β: some cross reactivity
[6]; 75 μg
  Band Intensity: 0.825
  Inhibition (%): 28.9%
  Relative Intensity (%): 71.1%
[6]; 300 μg
  Band Intensity: 0.528
  Inhibition (%): 54.5%
  Relative Intensity (%): 45.5%
